Assays:
[1] = system: Ms PCs; assay: Lipid accumulation screen in Ms PCs (BODIPY and Oil Red O staining, Oil Red O dye elution); assay type: cell-based, M. sexta; details: 1 mM, 7 days in culture
Method: To screen for lipid accumulation in Ms PCs, cells were seeded at 100,000 cells/cm^2 in 48-well plates. After 24 hours in culture, media was refreshed with growth media supplemented with variable concentrations (0, 0.01, 0.1, 1 mM) of water-soluble oleic acid (01257, Sigma-Aldrich) or Intralipid (I141, Sigma-Aldrich). After seven days in culture, cells were stained with BODIPY ([…], Fisher Scientific) at a 1:2,000 dilution and NucBlue (R37605, Fisher Scientific) or fixed and stained with Oil Red O (O0625, Sigma-Aldrich). Cells were imaged on a fluorescence microscope (BZ-X800, Keyence). To quantify lipid accumulation, Oil Red O dye from each condition was eluted with isopropanol and absorbance (500 nm) was measured on a microplate reader. To investigate lipid accumulation over time, cells were treated with 0.1 mM of Intralipid and stained with BODIPY and NucBlue on days 1, 4, 7 and 14.

[2] = system: S2 cells; details: 1 mM over 24 hours; cited from earlier work

CCCCCCCC/C=C\CCCCCCCC(=O)O [oleic acid]
lipid droplet formation (BODIPY and Oil Red O staining) [1]: visible
morphology, growth and viability of treated cells [1]: unhealthy morphology, minimal growth, and were assumed to be nonviable
increase in triacylglycerol content [2]: 5 fold

— patent publication US20250250537A1, “IN VITRO INSECT FAT CULTIVATION FOR CELLULAR AGRICULTURE APPLICATIONS” (Trustees of Tufts College, priority 2022, published 2025)
